Test results published in patent US11660351B2, “Antibody drug conjugates (ADCs) having enzymatically cleavable groups” (Bayer Pharma Aktiengesellschaft, priority 2016, dated 2023).

Legend:
SK-HEP-1 = assay: Cytotoxic effect, MTT assay, SK-HEP-1 cells; assay type: cell-based; conditions: Homo sapiens, SK-HEP1; Table 2, metabolites
NCI-H292 = assay: Cytotoxic effect, MTT assay, NCI-H292 cells; assay type: cell-based; conditions: Homo sapiens, Table 2, metabolites
Caco-2 cells = assay: Caco-2 flux assay for cell permeability; assay type: in vitro ADME; conditions: Caco-2, 2 h incubation
Method: The cell permeability of a substance can be investigated by means of in vitro testing in a flux assay using Caco-2 cells [M. D. Troutman and D. R. Thakker, Pharm. […] For this purpose, the cells were cultured for 15-16 days on 24-well filter plates. For the determination of permeation, the respective test substance was applied in a HEPES buffer to the cells either apically (A) or basally (B) and incubated for 2 hours. After 0 hours and after 2 hours, samples were taken from the cis and trans compartments. The samples were separated by HPLC (Agilent 1200, Böblingen, Germany) using reverse phase columns. The HPLC system was coupled via a Turbo Ion Spray Interface to a Triple Quadropole mass spectrometer API 4000 (AB SCIEX Deutschland GmbH, Darmstadt, Germany).

legumain = target: T1, legumain (Homo sapiens, UniProt Q99538); assay: Legumain assay (enzymatic cleavage); assay type: biochemical; conditions: recombinant human legumain, rhLegumain 1 ng/μl, substrate 3 μM, pH 5.0, read-out: half-life of legumain-mediated cleavage to the target compound (converted)
T1 construct: purchased R&D Systems 2199-CY
T1 sequence (Q99538 18-323 limits assumed): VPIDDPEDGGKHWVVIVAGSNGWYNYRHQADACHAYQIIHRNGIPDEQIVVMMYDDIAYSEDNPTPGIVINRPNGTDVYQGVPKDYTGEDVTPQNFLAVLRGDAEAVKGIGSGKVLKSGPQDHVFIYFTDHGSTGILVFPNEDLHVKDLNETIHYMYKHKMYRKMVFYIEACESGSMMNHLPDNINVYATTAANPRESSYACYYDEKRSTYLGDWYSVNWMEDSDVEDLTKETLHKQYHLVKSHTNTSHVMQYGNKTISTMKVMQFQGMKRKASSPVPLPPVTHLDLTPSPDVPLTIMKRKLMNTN
Method: The legumain assay was conducted with recombinant human enzyme. The rhlegumain enzyme solution (catalogue #2199-CY, R&D Systems) was diluted in 50 mM Na acetate buffer/100 mM NaCl, pH 4.0 to the desired concentration and preincubated at 37° C. for 2 h. rhLegumain was then adjusted to a final concentration of 1 ng/μl in 50 mM MES buffer, 250 mM NaCl, pH 5.0. For every legumain-cleavable prodrug to be examined, a mixture was made up in a micro reaction vessel (0.5 ml, from Eppendorf). For this purpose, the substrate solution was adjusted to the desired concentration (double concentration) with 50 mM MES buffer, 250 mM NaCl, pH 5.0. For the kinetic measurement of the enzymatic reaction, 250 μl of the legumain solution were first initially charged and the enzyme reaction was started by adding 250 μl of the substrate solution (final concentration: single concentration; 3 μM). At various points in time, 50 μl samples were taken. Immediately, 100 μl of ice-cold methanol were added to this sample in order to stop the enzymatic reaction, and the sample was then frozen at −20° C. The times selected for sampling were after 0.5 h, 1 h, 3 h and 24 h. The samples were then analysed by means of RP-HPLC analysis and by LC-MS analysis. The determination of the toxophore released enabled the determination of the half-life t1/2 of the enzymatic reaction. […]

MOLM-13 = assay: Cytotoxic effect, MTT assay, MOLM-13 cells; assay type: cell-based; conditions: Homo sapiens, Table 2, metabolites
Method: (§1) After 48 h, the medium was replaced. […] The suspension cells were counted and sown into a 96-well culture plate with white bottom (from Costar #3610) (#3610) (MOLM-13: 2000 cells/well; NB4: 7000 cells/well; MV-4-11: 5000 cells/well in a total volume of 100 μl). After 6 hours of incubation at 37° C. and 5% carbon dioxide, the medium was changed and the antibody-drug conjugates or metabolites were added by pipette in 10 μl of culture medium in concentrations of 10^−5M to 10^−13M to the cells (triplicates) in 90 μl. […] After 96 h, the cell proliferation was detected using the MTT assay (ATCC, Manassas, Va., USA, catalogue No. 30-1010K). To this end, the MTT reagent was incubated with the cells for 4 h, followed by lysis of the cells overnight by addition of the detergent. The dye formed was detected at 570 nm (Infinite M1000 pro, Tecan). The measured data were used to calculate the IC50 of the growth inhibition using the DRC (dose response curve). The proliferation of cells which were not treated with test substance but were otherwise identically treated was defined as the 100% figure.

KPL-4 = assay: Cytotoxic effect, MTT assay, KPL-4 cells; assay type: cell-based; conditions: Homo sapiens, KPL4; Table 2, metabolites
Method: as §1, with “μl).” for “μl). After 6 hours of incubation at 37° C. and 5% carbon dioxide, the medium was changed and the antibody-drug conjugates or metabolites were added by pipette in 10 μl of culture medium in concentrations of 10^−5M to 10^−13M to the cells (triplicates) in 90 μl.”

SMILES	IC50 (SK-HEP-1) [nM]	IC50 (NCI-H292) [nM]	Papp (B-A) (Caco-2 cells) [×10⁻⁶ cm/s]	half-life at 3 μM (legumain) [min]	IC50 (MOLM-13) [nM]	IC50 (KPL-4) [nM]
CC(C)(C)[C@H](c1cc(-c2cc(F)ccc2F)cn1Cc1ccccc1)N(CC[C@H](N)C(=O)NCCC(=O)N[C@H](CCC(=O)O)C(=O)O)C(=O)CO [Example M1, N-{(2S)-2-Amino-4-[{(1R)-1-[1-benzyl-4-(2,5-difluorophenyl)-1H-pyrrol-2-yl]-2,2-dimethylpropyl}(glycoloyl)amino]butanoyl}-beta-alanyl-D-glutamic acid]	19.6	174	0.27			
CNC(=O)[C@H](CCN(C(=O)CO)[C@@H](c1cc(-c2cc(F)ccc2F)cn1Cc1ccccc1)C(C)(C)C)NC(=O)[C@H](CC(N)=O)NC(=O)[C@H](C)NC(=O)[C@H](C)NC(=O)Cc1ccncc1 [Model compound A, N-(Pyridin-4-ylacetyl)-L-alanyl-L-alanyl-N^1-[(2S)-4-[{(1R)-1-[1-benzyl-4-(2,5-difluorophenyl)-1H-pyrrol-2-yl]-2,2-dimethylpropyl}(glycoloyl)amino]-1-(methylamino)-1-oxobutan-2-yl]-L-aspartamide]				24		
CC(C)(C)[C@H](c1cc(-c2cc(F)ccc2F)cn1Cc1ccccc1)N(CCCN)C(=O)CO [Reference Example R3M, N-(3-Aminopropyl)-N-{(1R)-1-[1-benzyl-4-(2,5-difluorophenyl)-1H-pyrrol-2-yl]-2,2-dimethylpropyl}-2-hydroxyacetamide]	7.62	0.27			0.0669	0.257
